Assay results published in patent EP2966448B1, “METHOD FOR THE PREDICTION OR PROGNOSIS OF THE RESPONSE OF A HUMAN SUBJECT SUFFERING FROM CANCER TO TREATMENT WITH AN ANTAGONIST OF THE NK1 RECEPTOR” (priority 2013, dated 2014).
Read-outs that look alike come from different tables or passages of the source.

Experiments:
Burkitt Lymphoma = test: Inhibition of primary tumor cell cultures vs Kras mutation (Example 2); format: cell-based, human; conditions: Homo sapiens, Cases with Kras non-mutated (wild type); 100 micromolar; read-out: Percentage of inhibition of cell cultures
Protocol: (§1) Cell cultures. To obtain tumor cells from human primary tumors we used the method described in De Bari et al. (De Bari et al. 2001). Briefly, small pieces of the tumors were digested into a hyaluronidase solution (Sigma-Aldrich, USA) at a concentration of 1 mg/ml during 15 minutes at 37°C, and then they were treated with 6 mg/ml of collagenase type IV (Invitrogen) during 2 hours at 37°C. Consecutively, cells were washed, and resuspended in the DMEM culture medium with high concentration of glucose (Dulbecco's Modified Eagle's Medium, Invitrogen) supplemented with 1% of antibiotics-antimycotics (Invitrogen) and with 1% of sodium pyruvate (Invitrogen), and the cells were seeded in culture slides at a concentration of 10.000 cells per square centimeter. When cells reached confluence, the adherent cells were separated using sterile trypsin at 0,5% (Invitrogen) and they were used among passages 3 and 9. For the assays shown next, tumor cells were seeded on slides at a concentration of 25.000 cells per well. A total of 6 wells containing the tumor cells were used as survival control. […] All the cultures were kept during 48 hours and later on recollected for their analysis.
(§2) In each case the presence or not of mutations in K-ras gene was determined.
(§3) To determine the existence of mutations in the K-ras gene DNA from cancer tumor cells was extracted from samples obtained from the different cancer tumor cells, using DNA extraction kits from Takara (Madison, WI, US) or Ambion (Huntingdon, Cambridgeshire, United Kingdom), following the manufacturer's instructions, and as it has been previously published (Di Fiore F, et al. 2007). Consecutively it was analyzed by sequencing the exon 2 of the KRAS gene, , by means of PCR amplification from previously extracted cancer tumor DNA, using the following sense primer (SEQ ID NO. 15): 5'-[sequence]-3' and anti-sense primer (SEQ ID NO. 16): 5'-[sequence]-3'. After the purification using the Qiagen extraction kit, the PCR products were sequenced using the Big Dye Terminator Kit V3.1 (Applied Biosystems, Foster City, CA, U.S.) and an ABI Prism 377 or 3100 DNA sequencer (Applied Biosystems). The presence of a heterozygous mutation in the KRAS gene in cancer tumor cells of the cultures was defined as the appearance of a mutant peak of a height of at least a third of the wild type. All the sequence analysis were executed at least twice in two independent PCR.
(§4) The antibody against NK1 receptor (Table 16) was used at 1/50 concentration. The percentages of inhibition are expressed in percentage of variation in relation to control ± standard deviation.

[1] = test system: Breast carcinoma (ductal adenocarcinoma); test: as above; format: cell-based, human; conditions: Homo sapiens, 100 micromolar, read-out: Percentage of inhibition of cell cultures
Protocol: (§5) Cell cultures. […] Briefly, small pieces of the tumors were digested into a hyaluronidase solution (Sigma-Aldrich, USA) at a concentration of 1 mg/ml during 15 minutes at 37°C, and then they were treated with 6 mg/ml of collagenase type IV (Invitrogen) during 2 hours at 37°C. Consecutively, cells were washed, and resuspended in the DMEM culture medium with high concentration of glucose (Dulbecco's Modified Eagle's Medium, Invitrogen) supplemented with 1% of antibiotics-antimycotics (Invitrogen) and with 1% of sodium pyruvate (Invitrogen), and the cells were seeded in culture slides at a concentration of 10.000 cells per square centimeter. When cells reached confluence, the adherent cells were separated using sterile trypsin at 0,5% (Invitrogen) and they were used among passages 3 and 9. For the assays shown next, tumor cells were seeded on slides at a concentration of 25.000 cells per well. A total of 6 wells containing the tumor cells were used as survival control. […] All the cultures were kept during 48 hours and later on recollected for their analysis.
as §2, §3, §4

[2] = test system: Non Hodgkin Lymphoma B (diffuse B cell lymphoma); test: as above; format: cell-based, human; conditions: Homo sapiens, B-cell, 100 micromolar, read-out: Percentage of inhibition of cell cultures
Protocol: as §1, §2, §3
(§6) The percentages of inhibition are expressed in percentage of variation in relation to control ± standard deviation.

Colon carcinoma = test: Inhibition of primary tumor cell cultures (48 hours) vs NK1 receptor immunostaining (Example 1); format: cell-based; conditions: Homo sapiens, 1 micromolar, read-out: Percentage of inhibition of cell cultures
Protocol: as §1
(§7) Immunohistochemistry techniques. The presence of NK1 receptors was also analyzed using immunohistochemistry techniques. Briefly, a sample of each of the cultures of the cell lines used in the present invention, was centrifuged (5 minutes at 1.500 rpm) and the pellet obtained was dehydrated using increasing concentrations of ethanol and, finally, xylol. Then, said dehydrated samples were embedded in paraffin, creating a block of cells. Such paraffin blocks were cut with a microtome at 5 microns thickness, and were placed on microscope slides adequate to perform immunohistochemistry techniques. Consecutively, they were de-paraffinized by immersing them in xylol, to be finally hydrated using a solution containing decreasing concentrations of ethanol, and finally submerged them into water. […] After this, the samples were left to cool down at room temperature for 10 minutes. The endogenous peroxidase activity was blocked with 3% peroxide of hydrogen for 30 minutes at room temperature. After washing the samples with 0.05 M of Tris buffer, they were incubated with 10% non-immune pork serum at for 30 minutes at room temperature. To analyze the expression of NK1 receptors, the cellular samples were incubated in the presence of anti-NK1 antibodies (S8305, Sigma-Aldrich) diluted 1:1000, overnight at 4°C. Afterwards, the samples were washed in Tris buffer 0.05 M at room temperature. The next step was the addition of Envision System-HRP (Dako) reagents for 30 minutes at room temperature. Then, the samples were washed again in Tris buffer 0.05 M and the immunoreactivity was visualized through light microscopy with a chromogenic solution containing 3,3'-Diaminobenzidine (DAB+; Dako, USA). To differentiate the cell nuclei, they were slightly stained with hematoxylin. As negative control, it was used samples not incubated with the primary antibody anti-NK1, which was replaced by non-immune serum. All the samples were evaluated.
(§8) To value the immunostaining in each of the cases six cuts were performed to be analyzed by the immunohistochemistry technique. In each of the six cuts, it was counted cells in 20 fields (magnification 400x) using an Olympus microscope (model CX31). In each field it was counted the total number of cells and the number of cells presenting immunostaining, calculating afterwards the percentage of cells which presented immunostaining.

[3] = test system: Thyroid carcinoma (folliculary type); test: as above; format: cell-based; conditions: Homo sapiens, 1 micromolar, read-out: Percentage of inhibition of cell cultures
Protocol: as §1, §7, §8

[4] = test system: human primary tumor cells; test: Inhibition of primary tumor cell cultures vs absence or presence of AKT protein (Example 4; tumor type per table line); format: cell-based; conditions: cancer cell cultures showing more presence of AKT, compared; non-peptidic antagonists 100 micromolar, antibody 1/50
Protocol: as §5
Afterwards, the cells were cultured in presence of several antagonists of the NK1 receptor.
In each case it was determined the presence or absence of the AKT protein effector downstream in the PI3 Kinases pathway.
To determine the presence of the AKT protein in the different cultures Western Blot technique was performed (following the description in example 1-Western Blot section), but using as primary antibody with reference: Akt (pan) (11E7) Rabbit mAb (4685, Cell Signalling).
The antibody against NK1 receptor (Table 26) was used at 1/50 concentration. The percentages of inhibition are expressed in percentage of variation in relation to control ± standard deviation.

[5] = test system: human primary tumor cells; test: Inhibition of primary tumor cell cultures vs low or high expression of the truncated form of NK1 receptor (Example 5; tumor type per table line); format: cell-based; conditions: for Percentage of inhibition of cell cultures: 100 micromolar
Protocol: as §1
The presence of the truncated form of NK1 receptor was determined and then cells were cultured in presence of several antagonists of the NK1 receptor.
In each case the presence of the truncated form of the NK1 receptor was determined.
To determine the presence of the truncated form of the gene of NK1 receptor PCR technique was performed (Polymerase Chain Reaction). The extraction of RNA, amplifications of PCR, cycle conditions and quantitative analysis were executed as it has been previously described. The specific primers were the following: For the full-length NK1R receptor (NM_001058.3; forward (SEQ ID NO: 17)-: 5'-[sequence]-3 ' and reverse- (SEQ ID NO:18): 5'-[sequence]-3') and for the truncated NK1receptor (NM_015727.2; forward (SEQ ID NO: 19): 5'-[sequence]-3 and reverse (SEQ ID NO;20): 5'-[sequence]-3').
Cases were distributed in two groups: • Group A -low expression of the truncated form of NK1 receptor- for those cases wherein the expression of the truncated form of NK1 receptor was less than double the expression of the full length form of such receptor. • Group B -high expression of the truncated form of NK1 receptor- for those cases wherein the expression of the truncated form of the NK1 receptor was higher than double the expression of the full length form of such receptor.
The percentages of inhibition are expressed in percentage of variation in relation to the control ± standard deviation.

Prostate carcinoma = test: Inhibition of primary tumor cell cultures vs Kras mutation (Example 2); format: cell-based, human; conditions: Homo sapiens, 100 micromolar, read-out: Percentage of inhibition of cell cultures
Protocol: as §1, §2, §3, §6

Gastric carcinoma = test: Inhibition of primary tumor cell cultures (48 hours) vs NK1 receptor immunostaining (Example 1); format: cell-based; conditions: Homo sapiens, 1 micromolar, read-out: Percentage of inhibition of cell cultures
Protocol: as §1, §7, §8

[6] = test system: Non Hodgkin Lymphoma T (diffuse T cell lymphoma); test: Inhibition of primary tumor cell cultures vs Kras mutation (Example 2); format: cell-based, human; conditions: Homo sapiens, T-cell, 100 micromolar, read-out: Percentage of inhibition of cell cultures
Protocol: as §1, §2, §3, §6

[7] = test system: Lung carcinoma (small cell type); test: Inhibition of primary tumor cell cultures (48 hours) vs NK1 receptor immunostaining (Example 1); format: cell-based; conditions: Homo sapiens, 1 micromolar, read-out: Percentage of inhibition of cell cultures
Protocol: as §1, §7, §8

[8] = test system: Gastric carcinoma (Adenocarcinoma); test: Inhibition of primary tumor cell cultures vs Kras mutation (Example 2); format: cell-based, human; conditions: Homo sapiens, 100 micromolar, read-out: Percentage of inhibition of cell cultures
Protocol: as §5, §2, §3, §4

[9] = Cases with Kras non-mutated (wild type)
[10] = NK1 receptor immunostaining Group 1 (less than 20% of the cells)
[11] = NK1 receptor immunostaining Group 2 (20-80% of the cells)
[12] = NK1 receptor immunostaining Group 3 (more than 80% of the cells)
[13] = NK1 receptor immunostaining Intensity grade 1
[14] = NK1 receptor immunostaining Intensity grade 2
[15] = NK1 receptor immunostaining Intensity grade 3

Q: Which results are given for `CC(=O)N1CCN([C@H]2CCN(C(=O)N(C)[C@H](C)c3cc(C(F)(F)F)cc(C(F)(F)F)c3)[C@@H](c3ccc(F)cc3C)C2)CC1` [Casopitant]?
A: inhibition at 100 µM (Burkitt Lymphoma): 92 ± 5%; inhibition at 100 µM ([1]; Cases with Kras mutated): 28 ± 6%; inhibition at 100 µM [1, 9]: 96 ± 4%; inhibition at 100 µM ([2]; Cases with Kras mutated): 26 ± 3%; inhibition at 100 µM [2, 9]: 95 ± 4%; inhibition at 1 µM (Colon carcinoma; [10]): 13 ± 3%; inhibition at 1 µM (Colon carcinoma; [11]): 46 ± 3%; inhibition at 1 µM (Colon carcinoma; [12]): 92 ± 3%; inhibition at 1 µM (Colon carcinoma; [13]): 32 ± 4%; inhibition at 1 µM (Colon carcinoma; [14]): 54 ± 4%; inhibition at 1 µM (Colon carcinoma; [15]): 92 ± 2%; inhibition at 1 µM [3, 10]: 14 ± 3%; inhibition at 1 µM [3, 11]: 44 ± 3%; inhibition at 1 µM [3, 12]: 94 ± 4%; inhibition at 1 µM [3, 13]: 34 ± 3%; inhibition at 1 µM [3, 14]: 54 ± 5%; inhibition at 1 µM [3, 15]: 93 ± 2%; inhibition of cell proliferation [4]: higher inhibition; Percentage of inhibition of cell cultures ([5]; Glioma (astrocytoma), Cases with high expression of the truncated form of NK1 receptor (Group B)): 95±7 percentage; Percentage of inhibition of cell cultures ([5]; Glioma (astrocytoma), Cases with low expression of the truncated form of NK1 receptor (Group A)): 24±5 percentage; Percentage of inhibition of cell cultures ([5]; Lung carcinoma (non small cell lung carcinoma), Cases with high expression of the truncated form of NK1 receptor (Group B)): 95±6 percentage; Percentage of inhibition of cell cultures ([5]; Lung carcinoma (non small cell lung carcinoma), Cases with low expression of the truncated form of NK1 receptor (Group A)): 25±4 percentage; Percentage of inhibition of cell cultures ([5]; Melanoma (Nodular Melanoma), Cases with high expression of the truncated form of NK1 receptor (Group B)): 96±6 percentage; Percentage of inhibition of cell cultures ([5]; Melanoma (Nodular Melanoma), Cases with low expression of the truncated form of NK1 receptor (Group A)): 23±5 percentage; Percentage of inhibition of cell cultures ([5]; Non Hodgkin Lymphoma B (diffuse B cell lymphoma), Cases with high expression of the truncated form of NK1 receptor (Group B)): 97±4 percentage; Percentage of inhibition of cell cultures ([5]; Non Hodgkin Lymphoma B (diffuse B cell lymphoma), Cases with low expression of the truncated form of NK1 receptor (Group A)): 24±3 percentage; Percentage of inhibition of cell cultures ([5]; Non Hodgkin Lymphoma T (diffuse T cell lymphoma), Cases with high expression of the truncated form of NK1 receptor (Group B)): 98±3 percentage; Percentage of inhibition of cell cultures ([5]; Non Hodgkin Lymphoma T (diffuse T cell lymphoma), Cases with low expression of the truncated form of NK1 receptor (Group A)): 23±4 percentage; Percentage of inhibition of cell cultures ([5]; Prostate carcinoma, Cases with high expression of the truncated form of NK1 receptor (Group B)): 94±4 percentage; Percentage of inhibition of cell cultures ([5]; Prostate carcinoma, Cases with low expression of the truncated form of NK1 receptor (Group A)): 23±6 percentage; Percentage of inhibition of cell cultures ([5]; Thyroid carcinoma (follicular carcinoma), Cases with high expression of the truncated form of NK1 receptor (Group B)): 93±4 percentage; Percentage of inhibition of cell cultures ([5]; Thyroid carcinoma (follicular carcinoma), Cases with low expression of the truncated form of NK1 receptor (Group A)): 23±3 percentage; Percentage of inhibition of cell cultures ([5]; Thyroid carcinoma (papillary carcinoma), Cases with high expression of the truncated form of NK1 receptor (Group B)): 94±5 percentage; Percentage of inhibition of cell cultures ([5]; Thyroid carcinoma (papillary carcinoma), Cases with low expression of the truncated form of NK1 receptor (Group A)): 24±5 percentage; Percentage of inhibition of cell cultures ([5]; Undifferentiated Pleomorphic Sarcoma (malignant fibrous histiocytoma grade 3), Cases with high expression of the truncated form of NK1 receptor (Group B)): 94±5 percentage; Percentage of inhibition of cell cultures ([5]; Undifferentiated Pleomorphic Sarcoma (malignant fibrous histiocytoma grade 3), Cases with low expression of the truncated form of NK1 receptor (Group A)): 25±4 percentage; Percentage of inhibition of cell cultures ([5]; Urinary bladder carcinoma (transitional cell carcinoma), Cases with high expression of the truncated form of NK1 receptor (Group B)): 95±7 percentage; Percentage of inhibition of cell cultures ([5]; Urinary bladder carcinoma (transitional cell carcinoma), Cases with low expression of the truncated form of NK1 receptor (Group A)): 25±4 percentage; inhibition of cell proliferation ([5]; cancer cell cultures that show more expression of the truncated form of NK1 receptor, compared, non-peptidic antagonists 100 micromolar, antibody 1/50): higher inhibition; inhibition at 100 µM (Prostate carcinoma; Cases with Kras mutated): 23 ± 3%; inhibition at 100 µM (Prostate carcinoma; [9]): 93 ± 7%; inhibition at 1 µM (Gastric carcinoma; [10]): 12 ± 4%; inhibition at 1 µM (Gastric carcinoma; [11]): 46 ± 2%; inhibition at 1 µM (Gastric carcinoma; [12]): 90 ± 2%; inhibition at 1 µM (Gastric carcinoma; [13]): 31 ± 3%; inhibition at 1 µM (Gastric carcinoma; [14]): 53 ± 3%; inhibition at 1 µM (Gastric carcinoma; [15]): 91 ± 3%; inhibition at 100 µM ([6]; Cases with Kras mutated): 26 ± 4%; inhibition at 100 µM [6, 9]: 96 ± 5%; inhibition at 1 µM [7, 10]: 12 ± 2%; inhibition at 1 µM [7, 11]: 45 ± 2%; inhibition at 1 µM [7, 12]: 93 ± 4%; inhibition at 1 µM [7, 13]: 33 ± 2%; inhibition at 1 µM [7, 14]: 55 ± 3%; inhibition at 1 µM [7, 15]: 94 ± 4%; inhibition at 100 µM ([8]; Cases with Kras mutated): 25 ± 5%; inhibition at 100 µM [8, 9]: 95 ± 5%
